The target of the experiment is T1, Beta-secretase 2 (Homo sapiens, UniProt Q9Y5Z0).
T1 sequence (Q9Y5Z0 whole entry): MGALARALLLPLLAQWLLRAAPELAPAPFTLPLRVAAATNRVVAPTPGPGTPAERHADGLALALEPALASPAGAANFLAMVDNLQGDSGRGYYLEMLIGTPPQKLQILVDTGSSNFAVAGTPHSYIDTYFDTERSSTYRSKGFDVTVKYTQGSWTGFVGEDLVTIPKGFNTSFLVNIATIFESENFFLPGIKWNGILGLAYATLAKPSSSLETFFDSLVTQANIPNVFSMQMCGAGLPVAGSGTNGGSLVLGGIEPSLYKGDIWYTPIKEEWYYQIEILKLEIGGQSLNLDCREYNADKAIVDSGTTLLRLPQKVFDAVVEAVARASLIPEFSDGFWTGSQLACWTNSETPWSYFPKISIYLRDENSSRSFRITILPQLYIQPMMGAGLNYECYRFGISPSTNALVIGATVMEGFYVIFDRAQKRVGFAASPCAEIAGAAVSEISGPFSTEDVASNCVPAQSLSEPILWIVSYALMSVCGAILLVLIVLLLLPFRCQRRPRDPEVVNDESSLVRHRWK
As to the kind of experiment: Enzyme Inhibition Assay.

Consider one compound from BindingDB's records for doi:10.1016/j.bmcl.2009.03.165 (Gsk, 2009).

One may read the IC50 as the midpoint of a concentration-inhibition curve. Low values mean greater potency, high ones weaker potency. Compound `CCNc1cc(C(=O)N[C@@H](Cc2ccccc2)[C@H](O)CNCc2cccc(C(F)(F)F)c2)cc(N2CCCCS2(=O)=O)c1` [BMCL193664 Compound 24] came in with an IC50 of 1.41 µM.
